Reference: US5852028A, “Pyrimidine carboxylates and related compounds and methods for treating inflammatory conditions” (Signal Pharmaceuticals, Inc., priority 1995, dated 1998)

Tested on: NFκB/AP-1
Assay: NFκB and AP-1 luciferase reporter gene assays in PMA/PHA-stimulated Jurkat T-cells
Assay type: cell-based
Conditions: Homo sapiens, stable Jurkat T-cells, PMA/PHA stimulation, 5 h
Source text: Stable human Jurkat T-cells containing an NFκB binding site (from the MHC promoter) fused to a minimal SV-40 promoter driving luciferase expression were used in this experiment. Cells were split to 3×10^5 cells/mL every 2-3 days (cell concentration should not exceed 1×10^6 cells/mL to keep the cells proliferating in log phase). These cells were counted, resuspended in fresh medium containing 10% Serum-Plus at a density of 1×10^6 cells/mL and plated in 96 well round bottom plates (200 μ.LAMBDA. per well) 18 hours prior to starting the experiment.
Compounds of this invention, dissolved in dimethyl sulfoxide (3.3, 0.33 and 0.03 μg/mL), were then added to the 96 well plates containing the cells and the plates were incubated for 0.5 h at 37° C. Then 50 ng/mL of phorbol 12-myristate-13-acetate (PMA) and 1 μg/mL of phytohemagglutinin (PHA) were added to each well and the cells were incubated for an additional 5 h at 37° C. The plates were centrifuged at 2200 RPM for 3 minutes at room temperature and then the medium was removed. To each well was added 60 μL of cell lysis buffer and the plates were left at room temperature for 0.25 h. Then 40 μL of each cell extract was transferred to a black 96 well plate and 50 μL of luciferase substrate buffer was added. Luminescence was immediately measured using a Packard TopCount.
For AP-1, the assay was run as described above for NFκB except stable Jurkat T-cells were used that contained a the -73 collagenase promoter driving luciferase expression. In addition, the concentration of PMA used was 5 ng/mL.

Row | SMILES | IC50
1 | CCCc1nc(NN2C(=O)C=C(C)C2=O)ncc1C(=O)OCC [Example 37, Ethyl 2-[N-(1'-aminocitraconamide)]-4-propylpyrimidine-5-carboxylate] | 0.15 µM
2 | CCOC(=O)c1cnc(NN2C(=O)C=C(C)C2=O)nc1CC [Example 36, Ethyl 2-[N-(1'-aminocitraconamide)]-4-ethylpyrimidine-5-carboxylate] | 0.15 µM
3 | CCOC(=O)c1cnc(C(F)(F)F)nc1NN1C(=O)C=C(C)C1=O [Example 21, Ethyl 4-[N-(1'-aminocitraconamide)]-2-trifluoromethylpyrimidine-5-carboxylate] | 0.5 µM
4 | CC(=O)c1cnc(NN2C(=O)C=C(C)C2=O)nc1C(F)(F)F [Example 23, 5-acetyl-2-[N-(1'-aminocitraconamide)]-4-trifluoromethylpyrimidine] | 5 to 10 µM
5 | CCOC(=O)c1cnc(NN2C(=O)C=C(C)C2=O)nc1-c1cccs1 [Example 38, Ethyl 2-[N-(1'-aminocitraconamide)]-4-(2"-thiophenyl)pyrimidine-5-carboxylate] | 0.04 µM
6 | CCOC(=O)c1cnc(NN2C(=O)C=C(C)C2=O)nc1C(F)(F)F [Example 20, Ethyl 2-[N-(1'-aminocitraconamide)]-4-trifluoromethylpyrimidine-5-carboxylate] | 0.7 µM
7 | CCOC(=O)c1cnc(NN2C(=O)C=C(c3ccccc3)C2=O)nc1C(F)(F)F [Example 40, Ethyl 2-[N-(1'-amino-3'-phenylmaleimide)]-4-trifluoromethylpyrimidine-5-carboxylate] | 3 µM

Continued, values first:

Row | IC50 | SMILES
8 | 0.09 µM | CCOC(=O)c1cnc(NN2C(=O)C=C(C)C2=O)nc1C(F)(F)C(F)(F)F [Example 48, Ethyl 2-[N-(1'-aminocitraconamido)]-4-pentafluoroethylpyrimidine-5-carboxylate]
9 | 1 µM | CCOC(=O)c1cnc(NN2C(=O)C=C(C)C2=O)nc1C(=O)OCC [Example 64, Diethyl 2-[N-(1'-aminocitraconamido)]-pyrimidine-4,5-dicarboxylate]
10 | 4 µM | CCOC(=O)c1cnc(NN2C(=O)C=C(C)C2=O)nc1C [Example 46, Ethyl 2-[N-(1'-aminocitraconamido)]-4-methylpyrimidine-5-carboxylate]
11 | 5 µM | CCOC(=O)c1cnc(NN2C(=O)C(C)=C(C)C2=O)nc1C(F)(F)F [Example 41, Ethyl 2-[N-(1'-amino-3',4'-dimethylmaleimide)]-4-trifluoromethylpyrimidine-5-carboxylate]
12 | 10 to 30 µM | CCOC(=O)c1cnc(C(F)(F)F)nc1NN1C(=O)C(C)=C(C)C1=O [Example 44, Ethyl 4-[N-(1'-amino-3',4'-dimethylmaleimido)]-2-trifluoromethylpyrimidine-5-carboxylate]
13 | 0.3 µM | CCOC(=O)c1cnc(N(C)N2C(=O)C=C(C)C2=O)nc1C(F)(F)F [Example 42, Ethyl 2-[N-(1'-aminocitraconamide)-N-methyl]-4-trifluoromethylpyrimidine-5-carboxylate]
14 | 1 µM | CCOC(=O)c1cnc(NN2C(=O)C=C(C)C2=O)nc1-c1ccccc1 [Example 50, Ethyl 2-[N-(1'-aminocitraconamido)]-4-phenylpyrimidine-5-carboxylate]
15 | 2 µM | CCOC(=O)c1cnc(NN2C(=O)C=C(C)C2=O)nc1Cc1ccccc1 [Example 52, Ethyl 2-[N-(1'-aminocitraconamido)]-4-benzylpyrimidine-5-carboxylate]

Tested on: C3H mice
Assay: not given
Conditions: Morris et al., 1990; cited from earlier work

Row | SMILES | activity in graft vs. host model (PLN assay)
16 | O=P1(N(CCCl)CCCl)NCCCO1 (centres unmarked) [cyclophosphamide] | active

Tested on: mice
Assay: not given
Conditions: Morris et al., 1990; cited from earlier work

Row | SMILES | activity in contact sensitivity model (delayed-type hypersensitivity to oxazolone)
17 | O=P1(N(CCCl)CCCl)NCCCO1 (centres unmarked) [cyclophosphamide] | active
